The experiment relates to Myzus persicae. Description: Example B6: action against Myzus persicae (leaf circle bioassay, sprayed Capsicum plants). Type of experiment: in vivo. The following applies: 96 h, read-out: Action % (mortality of nymphs). From the text: A synergistic effect is always present if the action EA of the combination of an active compound of the formula (A) with one of the active compounds (I) to (XXXI) is greater than the sum of the action of the active compounds applied individually:
However, the pesticidal action EA to be expected for a given combination of two pesticides can also be calculated as follows (cf. COLBY, S. R., “Calculating synergistic and antagonistic response of herbicide combinations”, Weeds 15, Pages 20-22, 1967): [formula]
X=Percent mortality on treatment with the compound of the formula (A) at a rate of application of p kg per hectare compared with the untreated control (=0%).
Y=Percent mortality on treatment with a compound (I) to (XXXI) at a rate of application of q kg per hectare compared with the untreated control.
EA=Expected pesticidal action (percent mortality compared with the untreated control) after treatment with the compound of the formula (A) and a compound (I) to (XXXI) at a rate of application of p+q kg of active compound per hectare.
If the action actually observed is greater than the expected value EA, synergism exists.
Action Against Myzus persicae
Capsicum plants (Capsicum annuum L.) 6 weeks old are sprayed with an aqueous emulsion spray liquor which comprises the individual compounds and mixtures according to the following table. The plants were placed in a greenhouse until determination of the activity.
The activity against Myzus persicae was measured in bioassays. 2-4 hours after application, circles of leaf are stamped out, placed with the upper side down on agar in Petri dishes and infested with an M. persicae mixed population consisting of 40-50 non-synchronous individuals. A total of 9 circles of leaf per concentration are used. The Petri dishes are covered with a cotton wool filter, closed with a plastic lid and placed in a climatically controlled chamber for plants. One day after infestation, the circles of leaf are cleaned of adults, skins and nymphs, so that only 25-40 nymphs laid overnight remain per circle of leaf. Four days after infestation, the mortality is determined by counting the dead and living nymphs. The tests are carried out 3 times. The results shown in the table are the average values of the tests.

Molecules are shown by their SMILES.

As to `CC1(C)C(C=C(Cl)Cl)C1C(=O)OC(C#N)c1cccc(Oc2ccccc2)c1` (racemic) [Cypermethrin high-cis, (RS)-α-cyano-3-phenoxybenzyl (1RS)-cis-trans-3-(2,2-dichlorvinyl)-1,1-dimethylcyclo-propanecarboxylate], the mortality at 600 ppm (Conc. 600 ppm, four days after infestation, average of 3 tests) is 8.2%. On to `CCCSP(=O)(OCC)Oc1ccc(Br)cc1Cl` (centres unmarked) [Profenofos, O-4-bromo-2-chlorophenyl O-ethyl S-propyl phosphorothioate], for which the mortality at 35 ppm was determined as 12.3%. Turning to `CC1=NNC(=O)N(N=Cc2cccnc2)C1` [Pymetrozine, 2,3,4,5-tetrahydro-3-oxo-4-[(pyridin-3-yl)-methyleneamino]-6-methyl-1,2,4-triazine], the mortality at 0.3 ppm (Conc. 0.3 ppm, four days after infestation, average of 3 tests) turned out to be 38.4%. `CN1COCN(Cc2cnc(Cl)s2)C1=N[N+](=O)[O-]` [A.5, 5-(2-chlorothiazol-5-ylmethyl)-3-methyl-4-nitroimino-perhydro-1,3,5-oxadiazine]: the mortality at 0.1 ppm (Conc. 0.1 ppm, four days after infestation, average of 3 tests) was 5.9%. Also, the mortality at 0.2 ppm (Conc. 0.2 ppm, four days after infestation, average of 3 tests) worked out at 35%.

Values taken from patent US6514954B1, “Pesticidal compositions” (priority 1997, dated 2003).
